# Reference: patent US7265096B2 (XenoPort, Inc., priority 2002, dated 2007)
# Key:
# [1] = Pharmacokinetics and intestinal exposure to gemcitabine after oral dosing in mice; format: in vivo; conditions: male, mouse, blood, po, 20 mg-eq. gemcitabine/kg; read-out: Fpo (oral bioavailability)
# Procedure: Blood samples (0.5 mL) were obtained by cardiac puncture from 4 animals at each time point (1, 5, 10, 15, 30, 45 minutes and 1, 2, 4, 6 and 24 hr post-dosing). Samples were immediately transferred to tubes containing 10 μL of tetrahydrouridine (50 μg/mL in 50% methanol/water) to prevent further deamination and aliquots (100 μL) were quenched with a solution of 1% w/w formic acid in acetonitrile (300 μL). Quenched blood samples were stored at −80° C. until analyzed. Following collection of blood samples, the small intestine of each animal was removed, rinsed with saline, scraped to remove the mucosal layer, and the mucosal tissue was transferred to a pre-weighed vial containing 10 μL of tetrahydrouridine (50 μg/mL in 50% methanol/water). Sample vials were snap frozen in dry ice/acetone and stored at −80° C. until analyzed. Mucosal tissue samples were diluted 1:10 in water and 100 μL of the resulting sample was added to 400 μL of methanol.
# [2] = system: human ENT1, ENT2, CNT1 and CNT3; conditions: literature (Mackey et al.; Fang et al.); cited from earlier work
# [3] = biological target: T1, CNT2 (Homo sapiens, UniProt O43868); conditions: literature (Mackey et al.; Fang et al.); cited from earlier work
# T1 sequence (O43868 1-658): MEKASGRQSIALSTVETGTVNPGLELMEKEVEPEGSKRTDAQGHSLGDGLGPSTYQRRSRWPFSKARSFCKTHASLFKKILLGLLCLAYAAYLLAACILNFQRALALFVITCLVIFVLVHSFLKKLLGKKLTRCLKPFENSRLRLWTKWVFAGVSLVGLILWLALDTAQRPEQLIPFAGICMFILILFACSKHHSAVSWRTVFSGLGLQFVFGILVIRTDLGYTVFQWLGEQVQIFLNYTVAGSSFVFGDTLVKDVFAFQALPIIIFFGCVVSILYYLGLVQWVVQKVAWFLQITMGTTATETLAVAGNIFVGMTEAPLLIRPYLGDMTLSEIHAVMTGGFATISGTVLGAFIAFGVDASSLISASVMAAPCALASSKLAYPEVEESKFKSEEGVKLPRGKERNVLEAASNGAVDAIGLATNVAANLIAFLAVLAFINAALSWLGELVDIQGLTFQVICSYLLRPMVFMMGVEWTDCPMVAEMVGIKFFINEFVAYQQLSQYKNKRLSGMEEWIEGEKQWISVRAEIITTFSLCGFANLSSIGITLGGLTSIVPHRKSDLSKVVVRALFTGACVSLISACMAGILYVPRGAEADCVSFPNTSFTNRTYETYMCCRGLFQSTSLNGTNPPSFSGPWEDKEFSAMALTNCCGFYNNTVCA
# [4] = intravenous infusion for up to 12 hours; cited from earlier work
smiles,measurement,setting,value
"Nc1ccn([C@@H]2O[C@H](CO)[C@@H](O)C2(F)F)c(=O)n1 [gemcitabine, 2′,2′-difluoro-2′-deoxycytidine]",bioavailability,[1],20%
same,"Transport by human ENT1, ENT2, CNT1 and CNT3",[2],"transported by human ENT1, ENT2, CNT1 and CNT3"
same,Transport by CNT2,[3],not the purine-selective concentrative transporter CNT2
same,Dose reported to be tolerated in patients,[4],10 mg/m^2/min
